Values joined by “and” are separate entries in the source; they are usually repeats but may differ in a detail not shown here. Identical values can stand only once.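 Compound exposure: 48 hours, 5 concentrations, 96-well plates. Here, GI50 denotes the concentration required for 50% inhibition of growth. TGI marks complete inhibition of growth.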 Where only a bound is given, the exact number is not on record here.

Common to all, as to assay: NCI anticancer screen, dose series, 48 h
Experiment [1] has as its system OVCAR-5 ovarian.
For experiment [2], the system named is DU-145 prostate.
Experiment [3] has as its system M14 melanoma.
For experiment [4], the system named is HL-60(TB) leukemia.
Experiment [5] has as its system NCI-H226 lung.
Experiment [6] relates to SK-MEL-28 melanoma.
For experiment [7], the system named is MOLT-4 leukemia.
Experiment [8] relates to COLO 205 colon.
For experiment [9], the system named is DMS 273 small cell lung.
Experiment [10] concerns DLD-1 colon.

On to `CCN1C(=O)N(CC)C2C1NN=c1s/c(=C\c3ccco3)c(=O)n12` (configuration not stated), for which the GI50 in experiment [1] was 1.31 µM; in experiment [2] it was 0.703 µM; in [3] it was 0.415 µM; in [4] it was 0.284 µM; in [6] it was over 22.8 µM; in experiment [7] it was 0.824 µM. Moreover, in [8], the GI50 was 0.403 µM. The TGI in experiment [1] is over 100 µM; in experiment [2], over 100 µM; in experiment [3], over 35.5 µM; in [4] it was 6 µM; in [5] it was over 100 µM; in experiment [6], over 100 µM. The TGI in experiment [7] was over 100 µM; in experiment [8], over 23.6 µM.
Take `CC/C(=C(/c1ccc(O)cc1)c1ccc(OCCN)cc1)c1ccccc1`: the GI50 in experiment [1] is 6.26 µM; in experiment [2], 3.5 µM; in experiment [3] it was 1.81 µM; in experiment [4], 2.18 µM; in [5], 11.6 µM; in experiment [6] it was 1.75 µM. Besides, the GI50 in experiment [7] was 3 µM; in experiment [8], 1.95 µM. The TGI in [1] is 20.2 µM; in experiment [2] it was 10.8 µM; in experiment [3], 3.48 µM; in experiment [4], 5.36 µM; in experiment [5], 30.7 µM; in experiment [6], 3.38 µM. The figures for the TGI in experiment [7] and in experiment [8] were 9.07 µM and 3.75 µM, respectively.
For the compound `C#CCN(Cc1nc2cc(C(F)(F)F)ccc2nc1-c1ccccc1)c1ccc(C)cc1`, the GI50 in experiment [1] was over 21.2 µM; in experiment [2], over 34.5 µM; in experiment [3], 5.4 µM; in experiment [4] it was 3.85 µM; in experiment [5] it was 8.07 µM; in [6], 13.9 µM. Also, the GI50 in experiment [7] is 3.1 µM; in [8], 2.79 µM. For the same compound, the TGI in experiment [1] was over 40.9 µM; in [2] it was over 77.9 µM; in [3], 32 µM; in experiment [4] it was over 74.5 µM; in experiment [5], 33 µM; in experiment [6], over 41 µM. The TGI in [7] is over 79.9 µM.
`COc1cc2c(cc1OC)CC(=O)Nc1cc(OC)c(OC)cc1CC2`: the TGI was over 100 µM in [1]; over 100 µM in experiment [3]; over 100 µM in experiment [9]; 64.3 µM in experiment [4]; over 100 µM in [5]; over 100 µM in [10]. For the same compound, the TGI in [6], in experiment [7] and in experiment [8] was over 100 µM in each case.
Regarding `CCCc1cc(=O)n2c(C(=O)Nc3cccc(C(=O)OCC)c3)c(C(=O)Nc3ccc(F)cc3)sc2n1`, the GI50 was 136 µM in experiment [1]; 58.8 µM in experiment [2]; 9.6 µM in experiment [3]; over 140 µM in [4]; 5.83 µM in experiment [5]; 133 µM in experiment [6]. The GI50 was over 140 µM in experiment [7] and 70.8 µM in experiment [8]. The TGI in experiment [1] is over 140 µM; in experiment [2], over 140 µM; in [3], 86 µM; in experiment [4] it was over 140 µM; in experiment [5], 27.7 µM; in [6] it was over 140 µM. The TGI in experiment [7] and in experiment [8] was over 140 µM throughout.
Take `N=C(N)SCc1c2ccccc2c(CSC(=N)N)c2ccccc12`: the GI50 was 14.8 µM in [1]; 5.63 µM in experiment [2]; 10.9 µM in experiment [3]; 4.06 µM in [4]; 6.44 µM in experiment [5]; 10.6 µM in experiment [6]. For the same compound, the GI50 is 1.24 µM in [7] and 2.75 µM in [8]. The TGI in experiment [1] was 28.7 µM; in experiment [2], 20 µM; in experiment [3], 25.5 µM; in experiment [4] it was 23.3 µM; in experiment [5], 30.6 µM; in experiment [6], 24.1 µM. Further, the TGI was 8.23 µM in experiment [7] and 14.1 µM in experiment [8].
Regarding `Nc1nc(Cl)cc(NCC(O)CO)n1` (configuration not stated), the TGI in experiment [1], in experiment [3], in [9], in experiment [4], in [5] and in [10] was over 100 µM in each case. Besides, the TGI in experiment [6], in [7] and in experiment [8] was over 100 µM in each case.
Consider `COC(=O)C1=CO[C@@H](OC2OC(CO)C(O)C(O)C2O)[C@H]2[C@@H](C)[C@@H](O)[C@@H](O)[C@@H]12` (some centres not stated), for which the TGI in experiment [1], in [2], in experiment [3], in experiment [4], in experiment [5] and in experiment [6] was over 100 µM each time. Also, the TGI in experiment [7] and in experiment [8] was over 100 µM in each case.
On to `COc1cc2c(c(OC)c1OC)-c1ccc(OC)c(=O)cc1[C@@H](NC(C)=O)CC2`, for which the GI50 in experiment [1] is over 578 µM; in experiment [10], 0.0176 µM; in [7] it was < 0.01 µM and 0.0352 µM and 0.0625 µM. Further, the TGI in [1] was over 625 µM; in experiment [2] it was 0.0538 µM; in [3] it was > 100 µM and 32 µM; in [10], over 625 µM; in experiment [6], over 625 µM.
Regarding `CCC(O)C1Cc2c(C)cc3c(c2O1)C(=O)c1ccccc1C3=O` (configuration not stated), the TGI was over 100 µM in experiment [1]; over 100 µM in experiment [3]; over 100 µM in experiment [9]; 51.7 µM in experiment [4]; over 100 µM in [5]; over 100 µM in experiment [10]. Also, the TGI in experiment [6] is over 100 µM; in [7], over 100 µM; in experiment [8] it was 33.1 µM.
With `CCOC(=O)Nc1nc2ccc(Br)cc2s1`, the GI50 in experiment [1], in experiment [2], in experiment [3], in [4], in experiment [5] and in experiment [6] was over 50 µM in each case. Also, the GI50 in experiment [7] and in experiment [8] was over 50 µM each time. Also, the TGI in [1], in experiment [2], in experiment [3], in experiment [4], in experiment [5] and in [6] was over 50 µM throughout. Further, the TGI in [7] and in experiment [8] was over 50 µM each time.
